Earlier results, collected in patent publication US12109298B2, “Improving the fastness to washing of pigment-containing dyes by using an oxidative pretreatment agent” (Henkel AG & Co. KGaA, priority 2020, dated 2024).
Read-outs that look alike come from different tables or passages of the source.

Experiments:
[1] = 25° C.
[2] = 5% solution in water

Row | Structure (SMILES) | solubility in water [1] | further results
1 | O=C([O-])C1=NN(c2ccc(S(=O)(=O)[O-])cc2)C(=O)C1N=Nc1ccc(S(=O)(=O)[O-])cc1.[Na+].[Na+].[Na+] (stereo not drawn) [Acid Yellow 23, trisodium salt of 4,5-dihydro-5-oxo-1-(4-sulfophenyl)-4-((4-sulfophenyl)azo)-1H-pyrazole-3-carboxylic acid] |  | solubility in water ([1]; in words): readily soluble in water
2 | O=S(=O)([O-])c1ccc(N=Nc2c(O)ccc3ccccc23)cc1.[Na+] [Acid Orange 7, sodium salt of 4-[(2-hydroxy-1-naphthyl)azo]benzene sulfonate] | more than 7 g/L | 
3 | O=C([O-])c1c(Cl)c(Cl)c(Cl)c(Cl)c1-c1c2c(Br)cc(=O)c(Br)c-2oc2c(Br)c(O)cc(Br)c12.O=C([O-])c1c(Cl)c(Cl)c(Cl)c(Cl)c1-c1c2c(Br)cc(=O)c(Br)c-2oc2c(Br)c(O)cc(Br)c12.[Na+].[Na+] [Acid Red 92, disodium salt of 3,4,5,6-tetrachloro-2-(1,4,5,8-tetrabromo-6-hydroxy-3-oxoxanthen-9-yl)benzoic acid] | greater than 10 g/L | 
4 | Nc1cc(S(=O)(=O)[O-])cc2cc(S(=O)(=O)[O-])c(N=Nc3ccccc3)c(O)c12.[Na+].[Na+] [Acid Red 33, diantrium salt of 5-amino-4-hydroxy-3-(phenylazo)-naphthalene-2,7-disulphonate] | 2.5 g/L | 
5 | O=P([O-])(O)O.[K+] [Potassium dihydrogen phosphate] |  | pH value [2]: 4.4
6 | CCN(Cc1cccc(S(=O)(=O)[O-])c1)c1ccc(C(=C2C=CC(=[N+](CC)Cc3cccc(S(=O)(=O)[O-])c3)C=C2)c2ccccc2S(=O)(=O)[O-])cc1.[Na+].[Na+] [Acid Blue 9] | more than 20 wt. % | 
